In patent US6818391B2, “Glutamate transporters” (The Regents of the University of California, priority 2000, dated 2004):

Key:
[1] = target: T1, BNPI (VGLUT1) (Rattus norvegicus, UniProt Q62634); test: 3H-glutamate uptake by membranes from PC12 cells expressing BNPI; assay type: biochemical; settings: for inhibition of 3H-glutamate uptake by membranes expressing BNPI: 10 mM, uptake at 5 min
T1 construct: expressed in transfected cells; light membranes prepared from them
T1 sequence (Q62634 1-560): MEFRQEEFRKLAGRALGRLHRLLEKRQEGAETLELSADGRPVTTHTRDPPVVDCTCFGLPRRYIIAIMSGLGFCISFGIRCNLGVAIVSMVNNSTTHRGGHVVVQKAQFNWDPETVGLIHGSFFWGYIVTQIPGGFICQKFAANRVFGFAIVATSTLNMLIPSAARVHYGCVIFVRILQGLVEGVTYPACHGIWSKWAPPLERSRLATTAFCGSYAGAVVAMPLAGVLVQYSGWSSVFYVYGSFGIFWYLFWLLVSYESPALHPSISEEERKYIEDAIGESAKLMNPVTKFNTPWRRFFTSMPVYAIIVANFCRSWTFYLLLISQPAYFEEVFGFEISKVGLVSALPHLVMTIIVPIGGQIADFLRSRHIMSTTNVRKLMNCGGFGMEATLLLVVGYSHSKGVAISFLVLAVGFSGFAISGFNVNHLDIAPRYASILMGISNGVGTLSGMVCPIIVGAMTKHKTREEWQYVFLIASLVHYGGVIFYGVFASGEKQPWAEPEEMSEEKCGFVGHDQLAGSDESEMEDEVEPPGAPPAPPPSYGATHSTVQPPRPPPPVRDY
Source text: Rather, the type I transporter NaPi-1 transports organic anions, including phenol red and penicillin G, with substantially higher apparent affinity than Pi (Busch et al. (1996) Proc. Natl. Acad. Sci., USA, 93: 5347). Human genetic studies have shown that mutations in another protein closely related to BNPI and NaPi-1 account for disorders of sialic acid storage (Verheijen et al. (1999) Nature Genet. 23: 462). In these conditions, sialic acid accumulates in lysosomes because of a defect in proton-driven export (Renlund et al. (1986) Science 232: 759; Mancini et al. (1989) J. Biol. Chem. 264: 15247; Tietze et al. (1989) J. Biol. Chem. 264: 15316; Mancini et al. (1992) Proc. Natl. Acad. Sci., USA, 89: 6609). […] To determine whether BNPI mediates the transport of glutamate into synaptic vesicles, we transfected the rat BNPI cDNA into rat pheochromocytoma PC12 cells, which lack detectable endogenous BNPI protein. The rat BNPI cDNA was stably expressed in PC12 cells, and immunofluorescence for BNPI was used to identify the most highly expressing cell clones. Membranes were prepared by homogenizing the washed cells in SH buffer [0.32 M sucrose and 10 mM Hepes-KOH (pH 7.4)] containing protease inhibitors and by pelleting the nuclei at 1000 g for 5 min and the heavier membranes at 27,000 g for 35 min. The supernatant containing lighter membranes was then pelleted at 210,000 g for 1 hour and resuspended in SH buffer with protease inhibitors at a final concentration of ˜10 μg protein/μl.
We then prepared a population of light membranes, including synaptic-like microvesicles, from the transfected and untransfected cells (McIntire et al. (1997) Nature 389: 870) and tested their ability to accumulate 3H-glutamate in the presence of 4 mM chloride and ATP, conditions that optimize glutamate accumulation by native synaptic vesicles (Maycox et al. (1988) J. Biol. Chem., 263: 15423; Carlson et al. […] J. Biol. Chem. 264: 7369). To initiate the transport reaction, we added 10 μl of membranes to 190 μl of SH buffer containing 4 mM KCl, 4 mM MgSO4, 4 mM ATP, and 50 μM 3H-glutamate, with other additions noted in the text and figure legends. The reaction mixture was incubated at 29° C. for varying times, and the uptake was terminated by rapid filtration, followed by immediate washes with 6 ml of cold 0.155 M potassium tartrate and 10 mM Hepes (pH 7.4). Background uptake was determined using membranes prepared from untransfected cells that were incubated for the same amount of time at the same temperature. Transport measurements were performed in duplicate with at least two different preparations of membranes. The Km was calculated by averaging the results of two separate determinations.

[2] = tested on: untransfected PC12 cell membranes; test: background 3H-glutamate uptake by membranes from untransfected PC12 cells; assay type: biochemical, rat; settings: uptake at 5 min
Method: To initiate the transport reaction, we added 10 μl of membranes to 190 μl of SH buffer containing 4 mM KCl, 4 mM MgSO4, 4 mM ATP, and 50 μM 3H-glutamate, with other additions noted in the text and figure legends. […] Background uptake was determined using membranes prepared from untransfected cells that were incubated for the same amount of time at the same temperature. Transport measurements were performed in duplicate with at least two different preparations of membranes. The Km was calculated by averaging the results of two separate determinations.

[3] = tested on: synaptic vesicles; settings: read-out: Km of vesicular glutamate transport; cited from earlier work
[4] = tested on: untransfected PC12 cell membranes; test: acridine orange fluorescence quenching of untransfected cell membranes; assay type: biochemical, rat; settings: 10 mM glutamate
Method: Native synaptic vesicles acidify during glutamate uptake (Maycox et al. (1988) J. Biol. Chem., 263: 15423). Glutamate presumably serves as a counterion for protons and dissipates ΔΨ, enabling the vacuolar H+-ATPase to generate a larger ΔpH, but cotransport of H+ with glutamate remains an alternative possibility. To determine whether acidification also accompanies glutamate transport by BNPI, we used the quenching of acridine orange fluorescence to measure vesicle pH. Membranes (200 μg of protein) were diluted into 2 ml of 0.3 M sucrose and 10 mM tris-Mops (pH 7.4) containing 4 mM MgSO4 and 5 μM acridine orange and incubated at 37° C. with continuous stirring. Fluorescence was monitored with a Hitachi F4500 spectrofluorimeter at an excitation wavelength of 492 nm and emission of 530 nm. Separate measurements were made with at least three different membrane preparations for wild-type and transfected cells; representative tracings are shown in FIG. 5.

Row | SMILES | 3H-glutamate uptake by BNPI at non-optimal chloride ([1]; 0 and 25 mM chloride) | inhibition of 3H-glutamate uptake by membranes expressing BNPI [1] | inhibition of 3H-glutamate uptake by membranes expressing BNPI ([1]; listed as L-glutamate) | Km ([1]; initial rate at 1 min, Lineweaver-Burke, untransfected background subtracted, read-out: Km of glutamate transport by BNPI) | effect on background glutamate uptake by untransfected cell membranes [2] | Km [3] | effect on acidification produced by chloride in nontransfected cell membranes [4]
1 | Cl [chloride] | much less activity detected |  |  |  |  |  | 
2 | N[C@@H](CCC(=O)O)C(=O)O [L-Glutamate] |  | markedly inhibits | inhibited the uptake | ~2000 µM | had little effect | ~1000 µM | had no effect
